These results are taken from patent publication US20060122181A1, “Heteroaromatic pentacyclic compound and medicinal use thereof” (Japan Tobacco Inc., priority 2003, published 2006).

Structures are written as SMILES.

In general, melting point refers to the temperature, or range, at which the solid turns liquid.

As to `CN(Cc1ccc(C2CCCCC2)cc1)c1ccc(-c2csc(CN(C)S(=O)(=O)CC(=O)O)n2)cc1` [Example 3-102], the melting point lay within 178 to 183 °C.
For `CCC(C)(C)c1ccc(OCc2ccc(-c3csc(N(C)Cc4ccc(C(=O)O)cc4)n3)cc2)cc1` [Example 1-38] the value was 155 to 157 °C.
Regarding `CCCC(CCC)c1ccc(OCc2ccc(-c3csc(Cn4nc(C(C)(C)C)cc4C(=O)O)n3)cc2)cc1` [Example 1-179], the melting point lay within 123 to 125 °C.
As for `CCCC(CCC)N(Cc1ccc(-c2csc(COc3cccc(C(=O)O)c3)n2)cc1)c1ccc(C(C)C)cc1` [Example 1-10], the figure is 127 to 129 °C.
As for `CCCC(CCC)c1ccc(N(Cc2ccc3nc(-c4csc(CN(CC(=O)O)Cc5nc6ccccc6[nH]5)n4)oc3c2)C(C)C)cc1` [Example 1-139], the figure is 127 to 133 °C.
Take `CCCC(CCC)c1ccc(OCc2ccc(-c3ccc(CN(CC(=O)OCC)Cc4nc5ccccc5n4C)s3)cc2)cc1` [Example 4-83]: the melting point was 82 to 84 °C.
For `CCCC(CCC)c1ccc(OCc2ccc(-c3csc(CN4Cc5ccccc5C[C@H]4C(=O)O)n3)cc2)cc1` [Example 1-46], the melting point was 77 to 82 °C.
`CC(C)Cc1ccc(CN(C)c2ccc(-c3csc(CN(CC(=O)O)C(=O)Cc4ccc(Cl)cc4)n3)cc2)cc1` [Example 3-57] gave a melting point of 150 to 152 °C.
Molecule `CC(C)CN(Cc1ccc(-c2csc(CN(CC(=O)O)Cc3ccccc3)n2)cc1)c1ccc(Cl)cc1` [Example 1-24] showed a melting point of 152 °C.
For the molecule `CCCC(CCC)c1ccc(Cn2cc(-c3csc(CN4C[C@H](O)C[C@H]4C(=O)O)n3)c3ccccc32)cc1` [Example 1-180], the melting point is 105 to 107 °C.
As for `CC(C)Cc1ccc(CN(C)c2ccc(-c3csc(CN(CC(=O)O)C(=O)c4ccccc4)n3)cc2)cc1` [Example 3-61], the figure is 143 to 145 °C; as for `CCCC(CCC)c1ccc(N(Cc2ccc3nc(-c4csc(COc5cncc(C(=O)O)c5)n4)oc3c2)C(C)C)cc1` [Example 1-140], 135 to 138 °C.
Turning to `CCCCOc1ccc(S(=O)(=O)N(CC)c2ccc(-c3csc(CN(CC(=O)O)Cc4ccccc4)c3)cc2)cc1` [Example 4-103], the melting point lay in the range of 120.7 to 123.3 °C.
As for `CC(C)Cc1ccc(CN(C)c2ccc(-c3csc(CN(C)C(Cc4ccccc4)C(=O)O)n3)cc2)cc1` (centres unmarked) [Example 3-85], the melting point fell in the range of 138 to 139 °C.
Molecule `CCCC(CCC)c1ccc(COc2ccc(-c3csc(CN(CC(=O)O)Cc4ccccn4)n3)cc2)cc1` [Example 3-19] had a melting point of 155 to 156 °C.
As for `CN(Cc1nc(-c2ccc(N(C)Cc3ccc(C4CCCCC4)cc3)cc2)cs1)C(=O)NCC(=O)O` [Example 3-109], the figure is 149 to 150 °C.
Molecule `Cc1ccc(OCc2ccc(C(F)(F)F)cc2)c(-c2csc(CN(CC(=O)O)Cc3ccccc3)n2)c1` [Example 3-8] gave a melting point of 168 to 170 °C.
In the case of `CN(Cc1ccccc1)c1ccc(-c2csc(CN(CC(=O)O)Cc3cccc4ccccc34)n2)cc1` [Example 3-54], the melting point lay in the range of 78 to 83 °C.
For `CCCC(CCC)c1ccc(COc2ccc(Cl)cc2-c2csc(CN(CC(=O)O)Cc3ccccc3)n2)cc1` [Example 3-13], the melting point is 130 to 131 °C.
`O=C(O)CN(CC1CCCCC1)c1nc(-c2nc3ccc(OCc4ccc(Cl)c(Cl)c4)cc3o2)cs1` [Example 3-110] registered a melting point of 198 to 200 °C.
Molecule `CN(Cc1ccc(C2CCCCC2)cc1)c1ccc(-c2csc(CNC(C(=O)O)c3ccccc3)n2)cc1` (centres unmarked) [Example 3-77] had a melting point of 183 to 186 °C.
For `CCC(CC)c1ccc2nc(-c3csc(COc4ccc(C(=O)O)cc4)n3)n(Cc3ccc(C(C)=O)cc3)c2c1` [Example 3-131] the value was 138 to 139 °C; for `CCCC(CCC)N(Cc1ccc(-c2csc(COc3ccc(C(=O)O)cn3)n2)cc1)c1ccc(C(C)C)cc1` [Example 1-6], 141 to 143 °C; for `CCCC(CCC)c1ccc(OCc2ccc(-c3csc(Cn4nc(C(=O)O)cc4C)n3)cc2)cc1` [Example 1-177], 185 to 194 °C.
As for `CCCC(CCC)c1ccc(COc2ccc(-c3csc(CN4Cc5ccccc5CC4C(=O)O)n3)cc2)cc1` (centres unmarked) [Example 3-118], the melting point fell in the range of 127 to 130 °C.
`CCC(CC)c1ccc(N(Cc2ccc(-c3csc(COc4cncc(C(=O)O)c4)c3)cc2)C(C)C)cc1` [Example 4-4] registered a melting point of 160 °C.
The molecule `CN(Cc1ccccc1)c1ccc(-c2csc(CN(CC(=O)O)Cc3ccccc3Cl)n2)cc1` [Example 3-50] had a melting point of 132 to 134 °C.
The molecule `CCCC(CCC)c1ccc(OCc2ccc(-c3csc(CN(CC(=O)O)CC(=O)Nc4ccc(C(C)C)cc4)c3)cc2)cc1` [Example 4-27] displayed a melting point of 164 to 166 °C.
Turning to `CN(Cc1ccc(C2CCC(F)CC2)cc1)c1ccc(-c2csc(CN(CC(=O)O)Cc3ccccc3)n2)cc1` (centres unmarked) [Example 3-33], the melting point was in the range of 146 to 147 °C.
In turn, `CN(Cc1ccccc1)c1ccc(-c2csc(CN(CC(=O)O)Cc3ccc4ccccc4n3)n2)cc1` [Example 3-55] registered a melting point of 144 to 147 °C.
`CCCC(CCC)c1ccc(N(Cc2ccc3nc(-c4csc(CN(CC(=O)O)Cc5nc(C(C)(C)C)cs5)n4)oc3c2)C(C)C)cc1` [Example 1-138] displayed a melting point of 98 to 100 °C.
In the case of `CCCC(CCC)c1ccc(CN2CCCc3cc(-c4csc(CN(CC(=O)O)Cc5nc(C(C)(C)C)cs5)n4)ccc32)cc1` [Example 3-125], the melting point was in the range of 132 to 135 °C.
As to `CCCC(CCC)c1ccc(OCc2ccc(-c3csc(CN(CCC(C)C)CC(=O)O)c3)cc2)cc1` [Example 4-71], the melting point is 176 to 182 °C.
`CN(Cc1ccc(C2CCCCC2)cc1)c1ccc(-c2csc(N(C)Cc3ccc(C(=O)O)o3)n2)cc1` [Example 3-75] registered a melting point of 158 to 161 °C.
As to `CC(C)Cc1ccc(COc2ccc(C(C)(C)C)cc2-c2csc(CN(CC(=O)O)Cc3ccccc3)n2)cc1` [Example 3-12], the melting point is 155 to 157 °C.
Molecule `CCCC(CCC)c1ccc(OCc2ccc(-c3csc(CN(C)[C@@H](Cc4ccccc4)C(=O)O)n3)cc2)cc1` [Example 1-42] showed a melting point of 114 to 118 °C.
Turning to `CC(C)CN(Cc1ccc(-c2csc(CN(CC(=O)O)C(=O)c3ccccn3)n2)cc1)c1ccc(C(C)(C)C)cc1` [Example 1-29], the melting point amounted to 160 °C.
As for `CC(C)(C)Cc1nc2ccccc2n1Cc1ccc(-c2csc(CN(CC(=O)O)Cc3ccccc3)c2)cc1` [Example 4-85], the figure is 161 to 166 °C.
With `CCCC(CCC)c1ccc(OCc2ccc(-c3csc(CN(C)c4cccc(C(=O)O)n4)n3)cc2)cc1` [Example 1-143], the melting point lay within 123 to 125 °C.
For the molecule `CCCC(CCC)c1ccc(OCc2ccc(-c3csc(CN(CC(=O)O)CC(=O)Nc4ccccc4)c3)cc2)cc1` [Example 4-16], the melting point was determined as 155 °C.
As for `CCCC(CCC)c1ccc(CN(C)c2ccc(-c3csc(COc4ccc(C(=O)O)cc4)n3)cc2)cc1` [Example 3-95], the figure is 175 to 177 °C; as for `CCC(CC)c1ccc(N(Cc2ccc(-c3csc(COc4ccc(C(=O)O)cn4)n3)cc2)C(C)C)cc1` [Example 1-3], 177 to 181 °C; as for `CCCC(CCC)c1ccc(OCc2ccc(-c3csc(CNC(=O)c4ccc(C(=O)O)cn4)n3)cc2)cc1` [Example 1-163], 164 to 166 °C.
As for `CCCC(CCC)c1ccc(Cn2c(-c3csc(CN4CCc5ccc(C(=O)O)cc5C4)n3)nc3ccccc32)cc1` [Example 1-169], the melting point fell in the range of 189.2 to 190.3 °C.
The molecule `CCCC(CCC)c1ccc(CN(C)c2ccc(-c3csc(CN(CC(=O)O)C(=O)c4ccc(C)cc4)n3)cc2)cc1` [Example 3-62] returned a melting point of 114 to 117 °C.
The molecule `CCCC(CCC)c1ccc(N(Cc2ccc(-c3csc(CN(CC(=O)O)S(=O)(=O)N(C)c4ccccc4)n3)cc2)C(C)C)cc1` [Example 1-116] showed a melting point of 146 to 148 °C.
For the molecule `CCCC(CCC)c1ccc(N(Cc2ccc(-c3csc(COc4cncc(C(=O)O)c4)c3)cc2)C(C)C)cc1` [Example 4-3], the melting point was determined as 156 °C.
As to `CCCC(CCC)c1ccc(CN(C)C(=O)c2ccc(-c3csc(CN(CC(=O)O)Cc4ccccc4)n3)cc2)cc1` [Example 1-56], the melting point was 65 to 71 °C.
For the molecule `CCCC(CCC)c1ccc(COc2ccc(-c3csc(COc4cncc(C(=O)O)c4)n3)cc2OC)cc1` [Example 3-115], the melting point lay in the range of 156 to 158 °C.
Take `CCCC(CCC)c1ccc(CN(C)c2ccc(-c3csc(COc4cncc(C(=O)O)c4)n3)cc2)cc1` [Example 3-94]: the melting point lay in the range of 178 to 181 °C.
The molecule `CCC(CC)c1ccc(COc2ccc(-c3csc(CN(CC(=O)O)Cc4ccccc4)n3)cc2)cc1` [Example 3-11] returned a melting point of 144 to 146 °C.
`CCCC(CCC)c1ccc(OCc2ccc(-c3csc(CN(CC(=O)O)CC(=O)Nc4cccnc4)n3)cc2)cc1` [Example 1-96] registered a melting point of 162.5 °C.
For the molecule `CCCC(CCC)c1ccc(OCc2ccc(-c3csc(CN(C)S(=O)(=O)CCCC(=O)O)n3)cc2)cc1` [Example 1-51], the melting point lay within 103.3 to 106.3 °C.
`CC(C)c1ccc(Cn2c(-c3csc(CN4CCc5ccc(C(=O)O)cc5C4)n3)nc3ccc(N4CCOCC4)cc32)cc1` [Example 1-185] displayed a melting point of 141 to 143.2 °C.
`CC(C)CCN(CC(=O)O)Cc1nc(-c2ccc(N(C)Cc3ccc(CC(C)C)cc3)cc2)cs1` [Example 3-93]: the melting point lay within 155 to 156 °C.
With `CCC(CC)N(Cc1ccc(-c2csc(COc3ccc(C(=O)O)cn3)n2)cc1)c1ccc(C(C)C)cc1` [Example 1-11], the melting point lay within 155 to 157 °C.
With `CCC(CC)c1ccc(COc2ccc(-c3csc(CN(CC(=O)O)Cc4ccccn4)n3)cc2)cc1` [Example 3-20], the melting point lay within 156 to 157 °C.
The molecule `CCCC(CCC)c1ccc(N(Cc2ccc(-c3csc(CN(CC(=O)O)C(=O)COCc4ccccc4)n3)cc2)C(C)C)cc1` [Example 1-134] returned a melting point of 158 to 160 °C.
The molecule `CC(C)Cc1ccc(CN(C)c2ccc(-c3csc(CN4Cc5ccccc5CC4C(=O)O)n3)cc2)cc1` (centres unmarked) [Example 3-72] came in with a melting point of 168 to 170 °C.
